# Experimental data taken from PubChem BioAssay AID1963838 (Molecular Pharmacology Branch, DTP, NCI, 2024).
# pIC50: −log10 of the molar value.
# System: 855422-203-R-J1-PDC complex spheroid viability
# Assay: Anticancer human tumor 855422-203-R-J1-PDC patient-derived bladder carcinoma cell line growth inhibition [POLQ]
# Conditions: for pIC50: curve of first compound; for viability, T/C: stronger effect = lower value
# In short: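 Three-cell-type spheroids modelling solid tumor plus stroma served as the readout system; POL inhibitors were tested individually and in combination, concentration ranges set by clinical Cmax where known.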
# [1] = second compound 0.0316 µM, first compound 0.0316 µM
# [2] = second compound 0.0316 µM, first compound 0.1 µM
# [3] = second compound 0.0316 µM, first compound 0.316 µM
# [4] = second compound 0.0316 µM, first compound 1 µM
# [5] = second compound 0.0316 µM, first compound 3.16 µM
# [6] = second compound 0.0316 µM, first compound 10 µM
# [7] = second compound 0.1 µM, first compound 0.0316 µM
# [8] = second compound 0.1 µM, first compound 0.1 µM
# [9] = second compound 0.1 µM, first compound 0.316 µM
# [10] = second compound 0.1 µM, first compound 1 µM
# [11] = second compound 0.1 µM, first compound 3.16 µM
# [12] = second compound 0.1 µM, first compound 10 µM
# [13] = second compound 0.316 µM, first compound 0.0316 µM
# [14] = second compound 0.316 µM, first compound 0.1 µM
# [15] = second compound 0.316 µM, first compound 0.316 µM
# [16] = second compound 0.316 µM, first compound 1 µM
# [17] = second compound 0.316 µM, first compound 3.16 µM
# [18] = second compound 0.316 µM, first compound 10 µM
# [19] = second compound 1 µM, first compound 0.0316 µM
# [20] = second compound 1 µM, first compound 0.1 µM
# [21] = second compound 1 µM, first compound 0.316 µM
# [22] = second compound 1 µM, first compound 1 µM
# [23] = second compound 1 µM, first compound 3.16 µM
# [24] = second compound 1 µM, first compound 10 µM
# [25] = second compound 3.16 µM, first compound 0.0316 µM
# [26] = second compound 3.16 µM, first compound 0.1 µM
# [27] = second compound 3.16 µM, first compound 0.316 µM
# [28] = second compound 3.16 µM, first compound 1 µM
# [29] = second compound 3.16 µM, first compound 3.16 µM
# [30] = second compound 3.16 µM, first compound 10 µM
# [31] = second compound 10 µM, first compound 0.0316 µM
# [32] = second compound 10 µM, first compound 0.1 µM
# [33] = second compound 10 µM, first compound 0.316 µM
# [34] = second compound 10 µM, first compound 1 µM
# [35] = second compound 10 µM, first compound 3.16 µM
# [36] = second compound 10 µM, first compound 10 µM
# 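Note: spheroids exposed to compounds for seven days before readout.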
structure (smiles),measurement,setting,value
COc1cccc2c1C(=O)c1c(O)c3c(c(O)c1C2=O)CC(O)(C(=O)CO)CC3OC1CC(N)C(O)C(C)O1 (centres undefined) + COC1C(OC(N)=O)C(O)C(Oc2ccc3c(O)c(NC(=O)c4ccc(O)c(CC=C(C)C)c4)c(=O)oc3c2C)OC1(C)C,pIC50,second compound 0.0316 µM,> 7.50
same,pIC50,second compound 0.1 µM,> 7.50
same,pIC50,second compound 0.316 µM,> 7.50
same,pIC50,second compound 1 µM,> 7.50
same,pIC50,second compound 3.16 µM,> 7.50
same,pIC50,second compound 10 µM,> 7.50
same,"viability, T/C",[1],12.4%
same,"viability, T/C",[2],11.1%
same,"viability, T/C",[3],1.99%
same,"viability, T/C",[4],0.29%
same,"viability, T/C",[5],0.38%
same,"viability, T/C",[6],1.85%
same,"viability, T/C",[7],15.1%
same,"viability, T/C",[8],10.9%
same,"viability, T/C",[9],3.53%
same,"viability, T/C",[10],0.21%
same,"viability, T/C",[11],0.32%
same,"viability, T/C",[12],1.27%
same,"viability, T/C",[13],14.5%
same,"viability, T/C",[14],10.1%
same,"viability, T/C",[15],1.84%
same,"viability, T/C",[16],0.63%
same,"viability, T/C",[17],0.37%
same,"viability, T/C",[18],1.74%
same,"viability, T/C",[19],18.5%
same,"viability, T/C",[20],10.4%
same,"viability, T/C",[21],2.23%
same,"viability, T/C",[22],0.32%
same,"viability, T/C",[23],0.3%
same,"viability, T/C",[24],2.92%
same,"viability, T/C",[25],15.4%
same,"viability, T/C",[26],10.4%
same,"viability, T/C",[27],2.63%
same,"viability, T/C",[28],0.31%
same,"viability, T/C",[29],0.58%
same,"viability, T/C",[30],1.48%
same,"viability, T/C",[31],16.2%
same,"viability, T/C",[32],9.82%
same,"viability, T/C",[33],2.61%
same,"viability, T/C",[34],0.29%
same,"viability, T/C",[35],0.47%
same,"viability, T/C",[36],1.58%
O=c1[nH]cc(F)c(=O)[nH]1 + COC1C(OC(N)=O)C(O)C(Oc2ccc3c(O)c(NC(=O)c4ccc(O)c(CC=C(C)C)c4)c(=O)oc3c2C)OC1(C)C,pIC50,second compound 0.0316 µM,6.33
same,pIC50,second compound 0.1 µM,6.39
same,pIC50,second compound 0.316 µM,6.43
same,pIC50,second compound 1 µM,6.31
same,pIC50,second compound 3.16 µM,6.29
same,pIC50,second compound 10 µM,6.37
same,"viability, T/C",[1],101%
same,"viability, T/C",[2],119%
same,"viability, T/C",[3],59.9%
same,"viability, T/C",[4],40.1%
same,"viability, T/C",[5],25.9%
same,"viability, T/C",[6],23.6%
same,"viability, T/C",[7],107%
same,"viability, T/C",[8],107%
same,"viability, T/C",[9],55%
same,"viability, T/C",[10],34.5%
same,"viability, T/C",[11],28%
same,"viability, T/C",[12],22.3%
same,"viability, T/C",[13],107%
same,"viability, T/C",[14],114%
same,"viability, T/C",[15],53.5%
same,"viability, T/C",[16],35.1%
same,"viability, T/C",[17],26.3%
same,"viability, T/C",[18],23.6%
same,"viability, T/C",[19],118%
same,"viability, T/C",[20],100%
same,"viability, T/C",[21],59.2%
same,"viability, T/C",[22],34%
same,"viability, T/C",[23],26.7%
same,"viability, T/C",[24],21.5%
same,"viability, T/C",[25],98.8%
same,"viability, T/C",[26],93.4%
same,"viability, T/C",[27],58.4%
same,"viability, T/C",[28],37.5%
same,"viability, T/C",[29],28.2%
same,"viability, T/C",[30],22%
same,"viability, T/C",[31],117%
same,"viability, T/C",[32],101%
same,"viability, T/C",[33],54.7%
same,"viability, T/C",[34],35.3%
same,"viability, T/C",[35],26.2%
same,"viability, T/C",[36],23.4%
